Measurements from the supplement of paper PMC10307832.

Tests used:
Experiment in all cases: relative viability (nuclei count vs DMSO), 5 days (fraction); higher = more cells survive
IU1-47 + Vorinostat = compound: CC1=CC(=C(N1C2=CC=C(C=C2)Cl)C)C(=O)CN3CCCCC3 [IU1-47] + O=C(CCCCCCC(=O)Nc1ccccc1)NO [Vorinostat] (partner 1 µM)
Summary of the method: (§1)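 Cells from lung cancer lines were seeded into 1536-well plates and, one day later, dosed by pin tool. Treatments were either a single drug or a fixed dose of an anchor drug with five library-drug doses (not always all listed) in √10 steps. After 5 days, nuclei were stained in a one-step fixation (final 0.05% Triton X-100, 1% formaldehyde, 1 ug/ml Hoechst) and counted on 4× images, and relative viability is the treated-to-vehicle nuclei ratio, as the median of duplicate plates.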

IU1-47 + Decitabine = compound: CC1=CC(=C(N1C2=CC=C(C=C2)Cl)C)C(=O)CN3CCCCC3 [IU1-47] + Nc1ncn([C@H]2C[C@H](O)[C@@H](CO)O2)c(=O)n1 [Decitabine] (partner 2 µM)
Summary of the method: as §1

FG-4592 + Lapatinib = compound: Cc1nc(C(=O)NCC(=O)O)c(O)c2ccc(Oc3ccccc3)cc12 [FG-4592] + CS(=O)(=O)CCNCc1ccc(-c2ccc3ncnc(Nc4ccc(OCc5cccc(F)c5)c(Cl)c4)c3c2)o1 [Lapatinib] (partner 2 µM)
Summary of the method: as §1

FG-4592 + Alpelisib = compound: Cc1nc(C(=O)NCC(=O)O)c(O)c2ccc(Oc3ccccc3)cc12 [FG-4592] + Cc1nc(NC(=O)N2CCC[C@H]2C(N)=O)sc1-c1ccnc(C(C)(C)C(F)(F)F)c1 [Alpelisib] (partner 2 µM)
Summary of the method: as §1

Cell Line	relative viability (IU1-47 + Vorinostat; first compound 0.08 µM)	relative viability (IU1-47 + Vorinostat; first compound 0.253 µM)	relative viability (IU1-47 + Vorinostat; first compound 0.8 µM)	relative viability (IU1-47 + Vorinostat; first compound 2.53 µM)	relative viability (IU1-47 + Vorinostat; first compound 8 µM)	relative viability (IU1-47 + Decitabine; first compound 0.08 µM)	relative viability (IU1-47 + Decitabine; first compound 0.253 µM)	relative viability (IU1-47 + Decitabine; first compound 0.8 µM)	relative viability (IU1-47 + Decitabine; first compound 2.53 µM)	relative viability (IU1-47 + Decitabine; first compound 8 µM)	relative viability (FG-4592 + Lapatinib; first compound 0.08 µM)	relative viability (FG-4592 + Lapatinib; first compound 0.253 µM)	relative viability (FG-4592 + Lapatinib; first compound 0.8 µM)	relative viability (FG-4592 + Lapatinib; first compound 2.53 µM)	relative viability (FG-4592 + Lapatinib; first compound 8 µM)	relative viability (FG-4592 + Alpelisib; first compound 0.08 µM)	relative viability (FG-4592 + Alpelisib; first compound 0.253 µM)	relative viability (FG-4592 + Alpelisib; first compound 0.8 µM)	relative viability (FG-4592 + Alpelisib; first compound 2.53 µM)	relative viability (FG-4592 + Alpelisib; first compound 8 µM)
NCI-H1734	0.902	0.859	0.778	0.542	0.816	0.6	0.541	0.548	0.5	0.419	0.947	0.886	0.915	0.973	1.02	0.645	0.685	0.681	0.686	0.731
NCI-H1755	0.82	0.895	0.799	0.828	0.668	0.712	0.694	0.653	0.797	0.766	0.935	1.01	0.945	1.02	0.984	0.906	0.888	0.906	0.945	0.878
NCI-H1793	0.628		0.77	0.64	0.686	0.53		0.538	0.507	0.426	0.592	0.468		0.646	0.62	0.772	0.678		0.719	0.557
NCI-H1915	0.541	0.572	0.533	0.371	0.509	0.269	0.256	0.27	0.25	0.247	0.956	0.933	0.931	0.943	1.04	1.04	1.02	1.05	1.01	1.05
NCI-H1944	0.567	0.59	0.593	0.5	0.524	0.446	0.474	0.419	0.426	0.388	0.712	0.759	0.576	0.71	0.768	0.794	0.801	0.692	0.853	0.836
NCI-H1975	0.733	0.756	0.795	0.664	0.594	0.397	0.381	0.585	0.361	0.378	0.801	0.788	0.831	0.759	0.697	0.679	0.555	0.672	0.655	0.56
NCI-H1993	0.635	0.858	0.819	0.835	0.718	0.602	0.641	0.628	0.687	0.537	0.848	0.885	0.744	0.929	0.719	0.689	0.614	0.622	0.647	0.669
NCI-H2009	0.761	0.783	0.72	0.656	0.668	0.36	0.448	0.366	0.382	0.406	1.02	0.878	0.888	0.735	0.924	1.18	1.06	1.19	1.15	1.22
NCI-H2023	0.699	0.767	0.668	0.497	0.748	0.182	0.212	0.215	0.248	0.225	1.03	0.735	0.407	0.468	0.598	0.683	0.569	0.722	0.631	0.534
NCI-H2085	0.853	0.861	0.791	0.626	0.76	0.54	0.549	0.566	0.519	0.478	0.633	0.747	0.607	0.723	0.824	0.911	0.889	0.967	1.04	0.935
NCI-H2087	0.902	0.716	0.83	0.723	0.489	0.317	0.256	0.311	0.228	0.23	0.888	0.943	1.37	1.1	1.15	1.11	0.956	1.11	1.05	1.03
NCI-H2126	0.895	0.775	0.801	0.478	0.731	0.564	0.584	0.599	0.544	0.583	0.672	0.708	0.604	0.613	0.589	0.744	0.787	0.661	0.769	0.69
NCI-H2170	0.997	0.973	0.921	0.748	0.747	0.516	0.529	0.498	0.482	0.555	0.263	0.244	0.242	0.277	0.256	0.823	0.801	0.794	0.826	0.581
NCI-H2347	0.668	0.628	0.662	0.444	0.528	0.662	0.663	0.609	0.615	0.581	0.906		0.848	0.917	0.974	0.988		0.85	1.16	1.11
NCI-H2405	1.06	1.08	1.14	0.925	1.01	0.839	0.762	0.769	0.779	0.765		0.733	0.87	0.918	0.702		0.399	0.655	0.638	0.715
NCI-H3122	1.29	1.15	1.17	1.06	1.01	0.416	0.402	0.517	0.491	0.449	1.1	0.989	1.03	1.08	1.1	0.861	0.764	0.665	0.781	0.733
